Reference: US6638964B2, “Sulfonamide-containing indole compounds” (Eisai Co., Ltd., priority 1999, dated 2003)
Converted amounts (≈) assume the structure as drawn.

Experiments:
[1] = system: HCT 116 cell strain derived from human cancer of the colon; assay: Antitumor effect, HCT 116 human colon cancer subcutaneously transplanted to nude mice; format: in vivo, nude mice (KSN); settings: 22nd day
Protocol: (§1) In the meanwhile, evaluation of an antitumor effect was carried out in accordance with a method of Koyanagi, et al. (Cancer Res., 94, 1702-1706, 1994) using a KP-1 cell strain derived from human pancreatic cancer and an HCT 116 cell strain derived from human cancer of the colon. The above-mentioned human cancer cells (5^×10^6 cells) were subcutaneously transplanted to nude mice (KSN) of 6 to 7 weeks age and, since the stage where it became to the size of about 100 mm^3, administration of the compound of the present invention was started. In the experiments, ten mice were used for a group to which no drug was administered while, in a drug-administered group, five mice were used for each dose. The dose of 50 mg/kg, 100 mg/kg or 200 mg/kg was continuously administered per os two times a day and the size of the tumor on the 22nd day from the beginning of the administration was compared with that in the group to which no drug was administered. The result was 37%, 30% and 11%, respectively in the KP-1 cell strain derived from human pancreatic cancer and 0.2%, 0.3% and 0.0%, respectively in the HCT 116 cell strain derived from human cancer of the colon in the case of a group to which the compound of Example 1 was administered for example.

[2] = system: Endothelial cells derived from human umbilical vein (HUVEC); assay: Inhibitory effect of growth of endothelial cells (MTT method); format: cell-based; settings: 72 h, incubating for three days
Protocol: Endothelial cells derived from human umbilical vein (HUVEC; manufactured by Sanko Junyaku) incubated in an EGM medium (manufactured by Sanko Junyaku) containing 100 Units of penicillin and 100 μg/ml of streptomycin were adjusted to 0.8-1×10^4 cells/ml and each 100 μl were separately placed on a 96-well plate. After incubating in a CO2 incubator (5% CO2) at 37 ° C. overnight, 100 μl of EGM medium containing test compound diluted in a three-fold manner were added thereto followed by incubating for three days. The cell numbers at that time were measured by MTT method. That is, 50 μl of phosphate buffer containing 0.33% of 3-(4,5-dimethylthiazol-2-yl)-2,5-diphenyltetrazolium bromide (MTT) was added thereto and incubation was continued for 3-4 hours. Then, after the supernatant liquid of the culture was removed, 100 μl of dimethyl sulfoxide (DMSO) was added to dissolve a formazane which was formed in the cells and the absorbance at the wave length of 540 nm was measured by use of plate reader (manufactured by Corona Denki).
(§2) Inhibiting rate was calculated from the following formula and 50% inhibiting concentration (IC50) was determined for each compound.
Inhibition Rate (%)=(C−T)/C×100
(§3) C: Absorbance when no compound was added
(§4) T: Absorbance when a compound was added

Mouse B16 melanoma cells = assay: Inhibitory effect of proliferation of mouse B16 melanoma (MTT method); format: cell-based; settings: 72 h, incubating for 3 days
Protocol: Mouse B16 melanoma cells incubated in a Dulbecco-modified Eagle medium (DMED; manufactured by Nissui Seiyaku) containing 10% of fetal bovine serum, 100 Units/ml of penicillin and 100 μg/ml of streptomycin were adjusted to 2^×10^4 cells/ml and each 100 μl thereof were separately placed on a 96-well plate. After an incubation was carried out in a CO2 incubator (5% CO2) at 37° C. for one night, then 100 μl of the above culture containing a test compound diluted in a 3-fold series were added thereto followed by incubating for 3 days and the cell numbers at that time were measured by an MTT method. Incidentally, a treatment with a 0.33% MTT solution was carried out for 1-2 hour(s).
as §2
(§5) Inhibiting Rate (%)=(C−T)/C^×100
as §3, §4

aorta pieces of rat = assay: Antiangiogenic effect: capillary formation from rat aorta pieces incubated in collagen; format: cell-based; settings: numbers of capillaries formed around the aorta, 7th day from addition of test compound
Protocol: The inhibition degree of angiogenesis which was observed when aorta pieces of rat were incubated in collagen was defined as an antiangiogenic effect. That is, the aorta excised from male rat of Sprague-Dawley strain (10-12 weeks age) was washed with a Hanks' solution so that fat tissues around there were removed minutely. The aorta was incised to prepare pieces of 2 mm square and they were allowed to stand in a 24-well plate holding the endothelial cells upside. Then, 500 μl of neutralized Type I collagen (Cell Matrix Type I-A; manufactured by Nitta Gelatin) were poured over each well and allowed to stand at room temperature for about 20 minutes in a clean bench to solidify the gel. After confirming that the gel was solidified, 500 μl of MCDB 131 medium (manufactured by Chlorella Kogyo) were added thereto followed by incubating in a CO2 incubator (5% CO2) at 37° C. On the next day, the culture medium was exchanged with 500 μl of MCDB 131 medium containing the test compound and the incubation was continued. After three days, the medium was again exchanged with 500 μl of MCDB 131 medium containing the test compound and, at the stage of the 7th day from the initiation of addition of the test compound, numbers of capillaries formed around the aorta were counted under a microscope. The solution containing the test compound was prepared in a three-fold dilution system where 10 μg/ml was the highest concentration.
Inhibiting rate was calculated from the following formula and 50% inhibiting concentration (IC50) for each test compound was determined.
as §5
C: Numbers of capillaries when no compound was added
T: Numbers of capillaries when a compound was added

[3] = system: KP-1 cell strain derived from human pancreatic cancer; assay: Antitumor effect, KP-1 human pancreatic cancer subcutaneously transplanted to nude mice; format: in vivo, nude mice (KSN); settings: for size of the tumor compared with that in the group to which no drug was administered: 22nd day, KP-1
Protocol: as §1

[4] = 50 mg/kg per os two times a day
[5] = 100 mg/kg per os two times a day
[6] = 200 mg/kg per os two times a day

Compound | IC50 (Mouse B16 melanoma cells) [µg/mL] | IC50 (aorta pieces of rat) [µg/mL] | size of the tumor compared with that in the group to which no drug was administered [1, 4] [%] | size of the tumor compared with that in the group to which no drug was administered [1, 5] [%] | size of the tumor compared with that in the group to which no drug was administered [1, 6] [%] | IC50 [2] [µg/mL] | size of the tumor compared with that in the group to which no drug was administered [3, 4] [%] | size of the tumor compared with that in the group to which no drug was administered [3, 5] [%] | size of the tumor compared with that in the group to which no drug was administered [3, 6] [%] | antitumor effect ([3]; overall statement for KP-1 and HCT 116 transplanted nude mice)
Nc1ccc(S(=O)(=O)Nc2cc(Br)cc3c(Cl)c[nH]c23)cn1 [Example 4, 6-Amino-N-(5-bromo-3-chloro-1H-indole-7-yl)-3-pyridinesulfonamide] | 19 (≈ 47.3 µM) | 0.1 (≈ 0.249 µM) |  |  |  | 1.3 (≈ 3.24 µM) |  |  |  | 
Cc1cc(NS(=O)(=O)c2cccc(C#N)c2)c2[nH]cc(Br)c2c1 [Example 5, N-(3-Bromo-5-methyl-1H-indole-7-yl)-3-cyanobenzenesulfonamide] | 8.8 (≈ 22.5 µM) | 0.15 (≈ 0.384 µM) |  |  |  | 0.98 (≈ 2.51 µM) |  |  |  | 
N#Cc1ccc(S(=O)(=O)Nc2ccc(Br)c3cc[nH]c23)cc1 [Example 6, N-(4-Bromo-1H-indole-7-yl)-4-cyanobenzenesulfonamide] | 6.5 (≈ 17.3 µM) | 0.06 (≈ 0.159 µM) |  |  |  | 1.2 (≈ 3.19 µM) |  |  |  | 
Nc1ccc(S(=O)(=O)Nc2ccc(Cl)c3cc[nH]c23)cn1 [Example 7, 6-Amino-N-(4-chloro-1H-indole-7-yl)-3-pyridinesulfonamide] | 7.5 (≈ 23.2 µM) | 0.42 (≈ 1.3 µM) |  |  |  | 0.98 (≈ 3.04 µM) |  |  |  | 
Cc1cc(NS(=O)(=O)c2ccc(C#N)s2)c2[nH]cc(Br)c2c1 [Example 9, N-(3-Bromo-5-methyl-1H-indole-7-yl)-5-cyano-2-thiophenesulfonamide] | 8.4 (≈ 21.2 µM) | 0.05 (≈ 0.126 µM) |  |  |  | 1.6 (≈ 4.04 µM) |  |  |  | 
Nc1ncc(S(=O)(=O)Nc2ccc(Br)c3c(Cl)c[nH]c23)cn1 [Example 10, 2-Amino-N-(4-bromo-3-chloro-1H-indole-7-yl)-5-pyrimidinesulfonamide] | 23 (≈ 57.1 µM) | 0.06 (≈ 0.149 µM) |  |  |  | 0.38 (≈ 0.944 µM) |  |  |  | 

More lines, main results first:

IC50 (Mouse B16 melanoma cells) [µg/mL] | IC50 (aorta pieces of rat) [µg/mL] | Compound | size of the tumor compared with that in the group to which no drug was administered [1, 4] [%] | size of the tumor compared with that in the group to which no drug was administered [1, 5] [%] | size of the tumor compared with that in the group to which no drug was administered [1, 6] [%] | IC50 [2] [µg/mL] | size of the tumor compared with that in the group to which no drug was administered [3, 4] [%] | size of the tumor compared with that in the group to which no drug was administered [3, 5] [%] | size of the tumor compared with that in the group to which no drug was administered [3, 6] [%] | antitumor effect ([3]; overall statement for KP-1 and HCT 116 transplanted nude mice)
10 (≈ 29.7 µM) | 0.08 (≈ 0.238 µM) | Cc1ccc(NS(=O)(=O)c2cccc(C#N)c2)c2[nH]cc(C#N)c12 [Example 1, 3-Cyano-N-(3-cyano-4-methyl-1H-indol-7-yl)benzenesulfonamide] | 0.2 | 0.3 | 0.0 | 0.1 (≈ 0.297 µM) | 37 | 30 | 11 | significant antitumor effect
15 (≈ 43.3 µM) | 0.07 (≈ 0.202 µM) | Cc1ccc(NS(=O)(=O)c2ccc(Cl)nc2)c2[nH]cc(C#N)c12 [Example 2, 6-Chloro-N-(3-cyano-4-methyl-1H-indol-7-yl)-3-pyridinesulfonamide] |  |  |  | 0.12 (≈ 0.346 µM) |  |  |  | 
21 (≈ 47.3 µM) | 0.1 (≈ 0.225 µM) | Cc1cc(NS(=O)(=O)c2ccc(S(N)(=O)=O)cc2)c2[nH]cc(Br)c2c1 [Example 3, N-(3-Bromo-5-methyl-1H-indole-7-yl)-4-sulfamoylbenzenesulfonamide] |  |  |  | 0.62 (≈ 1.4 µM) |  |  |  | 
19 (≈ 47.3 µM) | 0.05 (≈ 0.124 µM) | Nc1ccc(S(=O)(=O)Nc2ccc(Cl)c3c(Br)c[nH]c23)cn1 [Example 8, 6-Amino-N-(3-bromo-4-chloro-1H-indole-7-yl)-3-pyridinesulfonamide] |  |  |  | 0.49 (≈ 1.22 µM) |  |  |  | 
